Experimental data taken from the RepoRT retention time repository (doi:10.1016/j.jhazmat.2019.121712).

test: Thermo Scientific Acclaim RSLC 120 C18, 100 × 2.1 mm, 2.2 µm, 30 °C; A: 90% water + 10% methanol + 0.01% formic acid + 5 mM ammonium formate; B: methanol + 0.01% formic acid + 5 mM ammonium formate; gradient (min/%B) 0.1/1 3/39 14/99.9 16/99.9; conditions: stereoisomer not certain

SMILES	LC retention time [min]
Cc1cc(O)ccc1CC(C)N (centres undefined)	2.98
CNC(=O)ON=C(C)SC	4.16
CCOc1c(N)c2c(c(OCC)c1OCC)C(C1c3c(cc4c(c3OC)OCO4)CCN1C)OC2=O (centres undefined)	12
CCCNC(C)C(=O)Nc1c(C)csc1C(=O)OC (centres undefined)	4.69
CCN(CC)CC#CCOC(=O)C(O)(c1ccccc1)C1CCCCC1 (centres undefined)	8.92
CC(C)(C)NCC(O)COc1nsnc1N1CCOCC1 (centres undefined)	4.88
CCCN(CCC)c1c([N+](=O)[O-])cc(S(N)(=O)=O)cc1[N+](=O)[O-]	10.3
COP(=S)(OC)Oc1ccc([N+](=O)[O-])c(C)c1	9.92
COc1ccc(CCN(C)CCCC(C#N)(c2ccc(OC)c(OC)c2)C(C)C)cc1OC (centres undefined)	7.03
OCCOCCN1CCN(C2=Nc3ccc(O)cc3Sc3ccccc32)CC1	4.99
Cc1ncc(CO)c(CO)c1O	2.18
CN(CC=CC#CC(C)(C)C)Cc1cccc2ccccc12	11
CC1(c2ccc(Oc3ccccc3)cc2)OC(=O)N(Nc2ccccc2)C1=O (centres undefined)	11
CCCCCn1c(C)c(C(=O)c2cccc3ccccc23)c2ccccc21	12.6
Cn1c(=O)c2c(ncn2CCO)n(C)c1=O	4.09
CNC(C)C(=O)c1ccc2c(c1)OCO2 (centres undefined)	3.81
CSc1nc(N=[N+]=[N-])nc(NC(C)C)n1	9.71
Oc1ccc2c3c1OC1C(O)C=CC4C(C2)NCCC341 (centres undefined)	2.71
CC(CC(C#N)(c1ccccc1)C(C)C)N(C)C (centres undefined)	5.96
CC=C1CC(C)C(O)(CO)C(=O)OCC2=CCN3CCC(OC1=O)C23 (centres undefined)	4.01
CCOP(=S)(OCC)SCS(=O)C(C)(C)C (centres undefined)	9
CCOC(=O)C1=NOC(c2ccccc2)(c2ccccc2)C1	10.7

SMILES	LC retention time [min]
CCOC1Oc2ccc(OS(C)(=O)=O)cc2C1(C)C (centres undefined)	9.14
CCOc1nc2cccc(C(=O)O)c2n1Cc1ccc(-c2ccccc2-c2nn[nH]n2)cc1	7.93
CC1NCCOC1c1ccccc1 (centres undefined)	4.14
CN(C)C(=N)N=C(N)N	1.39
CCOP(=S)(Oc1cnc(C(C)(C)C)nc1)OC(C)C (centres undefined)	12.3
COC(=O)C1=C(C)NC(C)=C(C(=O)OC(C)C)C1c1cccc2nonc12 (centres undefined)	9.61
CCCCCn1cc(C(=O)N2CCN(C)CC2)c2ccccc21	7.75
CC(=O)OC1CCC2C3CCC4CC(=O)C=C(C)C4(C)C3CCC12C (centres undefined)	12.5
COC(=O)Nc1nc2ccc(S(=O)c3ccccc3)cc2[nH]1 (centres undefined)	6.66
COC12CCC3(CC1C(C)(O)C(C)(C)C)C1Cc4ccc(O)c5c4C3(CCN1CC1CC1)C2O5 (centres undefined)	7.96
CC12CCC(=O)C=C1CCC1C2CCC2(C)C1CCC2(C)O (centres undefined)	10.4
CCOc1ccc2c3c1OC1C(O)C=CC4C(C2)N(C)CCC341 (centres undefined)	4.08
Cc1cccc(C)c1OCC(C)N (centres undefined)	5.59
CC12CCC3c4ccc(O)cc4CCC3C1CCC2=O (centres undefined)	9.56
CCC1OC(=O)C(C)C(=O)C(C)C(OC2OC(C)CC(N(C)C)C2O)C(C)(OC)CC(C)C(=O)C(C)C2N(CCCCn3cnc(-c4cccnc4)c3)C(=O)OC12C (centres undefined)	7.25
CN(C)C(=O)NC1CCCCCCC1	8.47
CCCCCn1cc(C(=O)NC23CC4CC(CC(C4)C2)C3)c2ccccc21	13.2
CC(C)(C(=O)O)c1ccc(C(O)CCCN2CCC(C(O)(c3ccccc3)c3ccccc3)CC2)cc1 (centres undefined)	7.68
CC(CN(C)C)CN1c2ccccc2Sc2ccc(C#N)cc21 (centres undefined)	7.52
COc1cc(OC)nc(NC(=O)NS(=O)(=O)N(C)S(C)(=O)=O)n1	6.77
c1ccc2c(c1)Cc1ccccc1N1CCNCC21 (centres undefined)	6.86
CCc1ccc(C(=O)NN(C(=O)c2cc(C)cc(C)c2)C(C)(C)C)cc1	10.4

SMILES	LC retention time [min]
CCCOP(=S)(OCCC)OP(=S)(OCCC)OCCC	12.9
CC#Cc1cc(C)nc(Nc2ccccc2)n1	10.2
CCCCCn1cc(C(=O)Cc2ccccc2OC)c2ccccc21	11.8
CCCCCn1cc(C(=O)c2ccc(OC)c3ccccc23)c2ccccc21	12.7
Cc1nc(NS(=O)(=O)c2ccc(N)cc2)oc1C	4.11
CNS(=O)(=O)Cc1ccc2[nH]cc(CCN(C)C)c2c1	3.43
CN(C)CCC=C1c2ccccc2COc2ccc(CC(=O)O)cc21	6.89
COCC(C)N(C(=O)CS(=O)(=O)O)c1c(C)csc1C (centres undefined)	6.28
CC1CCC2(OC1)OC1CC3C4CC=C5CC(O)CCC5(C)C4CCC3(C)C1C2C (centres undefined)	15.1
CC(CCc1ccc(O)cc1)NCC(O)c1ccc(O)cc1 (centres undefined)	4.39
O=C(O)C1C2CCC(O2)C1C(=O)O (centres undefined)	3.2
CCOP(=S)(Oc1ccc(C#N)cc1)c1ccccc1 (centres undefined)	10.9
COc1ccc(Cc2cnc(N)nc2N)cc1OC	3.88
COc1ccc(CNC(=O)c2cc([N+](=O)[O-])ccc2NC(C)CO)cc1OC (centres undefined)	7.8
COc1ccc(C2Sc3ccccc3N(CCN(C)C)C(=O)C2O)cc1 (centres undefined)	6.41
CCN(CC)CC(C)(C)COC(=O)c1ccc(N)cc1	4.24
COc1cccc(C2(O)CCCCC2CN(C)C)c1 (centres undefined)	4.88
CN1C2CCC1CC(OC(c1ccccc1)c1ccccc1)C2 (centres undefined)	7.97
COC1=CC(=O)OC(C=Cc2ccccc2)C1 (centres undefined)	8.32
CCCc1nn(C)c2c(=O)[nH]c(-c3cc(C(=O)CN4CCN(CC)C(=O)C4)ccc3OCC)nc12	9.09
CCCC(C(=O)c1ccc2ccccc2c1)N1CCCC1 (centres undefined)	7.33
CC12CCC3C(CC=C4CC(O)CCC43C)C1CCC2=O (centres undefined)	10.2

SMILES	LC retention time [min]
c1ccc(CN(CCN2CCCC2)c2ccccc2)cc1	7.19
CCNC(=O)NC(=O)C(C#N)=NOC	5.6
O=C1CC2OCC=C3CN4CCC56c7ccccc7N1C5C2C3CC46 (centres undefined)	4.16
COc1ccc2[nH]cc(CC(C)N)c2c1 (centres undefined)	4.36
CN1C(=O)CCC1c1cccnc1 (centres undefined)	3.75
CCOc1ccc(S(=O)(=O)O)c2cccnc12	3.56
CC(C)N(CCc1c[nH]c2ccccc12)C(C)C	4.87
C=CCc1ccccc1OCC(O)CNC(C)C (centres undefined)	6.71
CCSCCSP(=S)(OC)OC	10.2
COc1cc2[nH]c(C)c(CCN3CCN(c4ccccc4)CC3)c2cc1OC	5.76
CCC(CN(C)C)(CN(C)C)OC(=O)c1ccccc1	6.07
Cc1cc(NS(=O)(=O)c2ccc(N)cc2)no1	4.6
CCCCCc1cc(O)c2c(c1)OC(C)(C)c1ccc(C)cc1-2	13.7
CNCCCN1c2ccccc2CCc2ccccc21	8.08
CC1=C(C(=O)O)N2C(=O)C(NC(=O)C(N)c3ccc(O)cc3)C2SC1 (centres undefined)	2.84
CN(C)CCCN1c2ccccc2CCc2ccccc21	8.08
CC(=O)Nc1ccc(S(=O)(=O)Nc2ncccn2)cc1	4.11
Cc1cc(C(C)(C)C)cc(C)c1CC1=NCCN1	7.75
CCC(C)c1ccccc1OC(=O)NC (centres undefined)	9.05
CNC(=O)ON=C(C)C(C)S(C)=O (centres undefined)	3.35
CC(Cn1cnc2c(N)ncnc21)OCP(=O)(O)O (centres undefined)	2.69
CCCCCn1cc(C(=O)Oc2cccc3cccnc23)c2ccccc21	11.9

SMILES	LC retention time [min]
CN1CCC23c4c5ccc(O)c4OC2C(=O)CCC3(O)C1C5 (centres undefined)	2.75
CC(C)c1cc(Oc2ccccc2)cc(C(C)C)c1NC(=S)NC(C)(C)C	12.9
CCOc1nc2cccc(C(=O)OC(C)OC(=O)OC3CCCCC3)c2n1Cc1ccc(-c2ccccc2-c2nn[nH]n2)cc1 (centres undefined)	12.2
CCn1cc(C(=O)O)c(=O)c2ccc(C)nc21	7.06
CCC1OC(=O)C(C)C(OC2CC(C)(OC)C(O)C(C)O2)C(C)C(OC2OC(C)CC(N(C)C)C2O)C(C)(O)CC(C)CN(C)C(C)C(O)C1(C)O (centres undefined)	5.98
CNC(=O)Oc1cccc(N=CN(C)C)c1	3.14
CN1CCC(OC(c2ccccc2)c2ccccc2)CC1	7.23
O=C(O)CCCO	1.95
COc1ccc(C(=O)c2cn(CCCCC(=O)O)c3ccccc23)cc1	8.81
COc1ccc2[nH]cc(CCN(C(C)C)C(C)C)c2c1	4.81
CC(N)C(=O)c1ccccc1 (centres undefined)	3.59
OCCN1CCN(CCCN2c3ccccc3C=Cc3ccccc32)CC1	7.83
CC#CCn1c(N2CCCC(N)C2)nc2c1c(=O)n(Cc1nc(C)c3ccccc3n1)c(=O)n2C (centres undefined)	6.01
C=CCN1CCC23c4c5ccc(O)c4OC2C(=O)CCC3(O)C1C5 (centres undefined)	3.44
Cc1ccc(S(=O)(=O)NC(=O)NN2CCCCCC2)cc1	8.09
CON=C(C(=O)OC)c1ccccc1COc1ccccc1C	10.8
CCCCCn1c(O)c(C(=O)c2cccc3ccccc23)c2ccccc21	14
O=C(c1cccc2ccccc12)c1cn(CCN2CCOCC2)c2cccc(O)c12	10.1
CCCOc1ccc(S(=O)(=O)NCCC2CCCN2C)cc1-c1nc2c(CCC)nn(C)c2c(=O)[nH]1 (centres undefined)	7.83
COc1cc(CNC(=O)CCCCC=CC(C)C)ccc1O	9.83
CC(C)CC(CN)CC(=O)O (centres undefined)	3.88
